{"source": "patent US11058117B2", "about": "“Benzoxaborole compounds” (BASF SE, priority 2017, dated 2021)", "key": {"Abutilon theophrasti [1]": {"tested_on": "Abutilon theophrasti", "experiment": "greenhouse post-emergence herbicidal test", "type": "in vivo", "settings": "scale 0 to 100", "procedure": "(§1) The culture containers used were plastic flowerpots containing loamy sand with approximately 3.0% of humus as the substrate. The seeds of the test plants were sown separately for each species.\n(§2) For this purpose, the test plants were either sown directly and grown in the same containers, or they were first grown separately as seedlings and transplanted into the test containers a few days prior to treatment.\n(§3) Depending on the species, the plants were kept at 10-25° C. or 20-35° C., respectively.\n(§4) The test period extended over 2 to 4 weeks. During this time, the plants were tended, and their response to the individual treatments was evaluated.\n(§5) Evaluation was carried out using a scale from 0 to 100. 100 means no emergence of the plants, or complete destruction of at least the aerial moieties, and 0 means no damage, or normal course of growth. A moderate herbicidal activity is given at values of at least 60, a good herbicidal activity is given at values of at least 70, and a very good herbicidal activity is given at values of at least 85."}, "Amaranthus retroflexus [2]": {"tested_on": "Amaranthus retroflexus", "experiment": "greenhouse post-emergence herbicidal test", "type": "in vivo", "settings": "scale 0 to 100", "procedure": "as §1, §2, §3, §4, §5"}, "Setaria viridis": {"tested_on": "Setaria viridis", "experiment": "greenhouse post-emergence herbicidal test", "type": "in vivo", "settings": "scale 0 to 100", "procedure": "as §1, §2, §3, §4, §5"}, "Sesbania exaltata": {"tested_on": "Sesbania exaltata", "settings": "post-emergence, application rate 0.25 kg/ha; scale 0 to 100", "procedure": "as §1, §2, §3, §4, §5"}, "Polygonum convolvulus": {"tested_on": "Polygonum convolvulus", "settings": "post-emergence, application rate 0.25 kg/ha; scale 0 to 100", "procedure": "as §1, §2, §3, §4, §5"}, "Echinocloa crus-galli": {"tested_on": "Echinocloa crus-galli", "settings": "post-emergence, application rate 2 kg/ha; scale 0 to 100", "procedure": "as §1, §2, §3, §4, §5"}, "Setaria faberi": {"tested_on": "Setaria faberi", "settings": "pre-emergence, application rate 2 kg/ha; scale 0 to 100", "excerpt": "as §1\n(§6) The containers were irrigated gently to promote germination and growth and subsequently covered with transparent plastic hoods until the plants had rooted. This cover caused uniform germination of the test plants, unless this had been impaired by the active ingredients.\nas §3, §4, §5"}, "Alopecurus myosuroides": {"tested_on": "Alopecurus myosuroides", "settings": "post-emergence, scale 0 to 100", "procedure": "as §1, §2, §3, §4, §5"}, "Avena fatua": {"tested_on": "Avena fatua", "experiment": "greenhouse post-emergence herbicidal test", "type": "in vivo", "settings": "application rate 2 kg/ha, scale 0 to 100", "procedure": "as §1, §2, §3, §4, §5"}, "Abutilon theophrasti [3]": {"tested_on": "Abutilon theophrasti", "settings": "pre-emergence, application rate 2 kg/ha; scale 0 to 100", "excerpt": "as §1, §6, §3, §4, §5"}, "Amaranthus retroflexus [4]": {"tested_on": "Amaranthus retroflexus", "settings": "pre-emergence, application rate 2 kg/ha; scale 0 to 100", "excerpt": "as §1, §6, §3, §4, §5"}}, "note": "Read-outs that look alike come from different tables or passages of the source.", "data": [{"smiles": "O=C(O)C1Oc2ccc3c(c2O1)B(O)OC3", "note": "(stereo not drawn) [Compound 2, 1-hydroxy-3H-[1,3]dioxolo[4,5-g][2,1]benzoxaborole-7-carboxylic acid]", "values": [{"measurement": "herbicidal activity against Abutilon theophrasti", "setting": "Abutilon theophrasti [1]; application rate 2 kg/ha", "value": 90, "unit": "%"}, {"measurement": "herbicidal activity against Amaranthus retroflexus", "setting": "Amaranthus retroflexus [2]; application rate 2 kg/ha", "value": 100, "unit": "%"}, {"measurement": "herbicidal activity against Setaria viridis", "setting": "Setaria viridis; application rate 2 kg/ha", "value": 80, "unit": "%"}]}, {"smiles": "CCOC(=O)C1COc2ccc3c(c2O1)B(O)OC3", "note": "(stereo not drawn) [Compound 15]", "values": [{"measurement": "herbicidal activity against Abutilon theophrasti", "setting": "Abutilon theophrasti [1]; application rate 2 kg/ha", "value": 90, "unit": "%"}, {"measurement": "herbicidal activity against Amaranthus retroflexus", "setting": "Amaranthus retroflexus [2]; application rate 2 kg/ha", "value": 90, "unit": "%"}]}, {"smiles": "COC(=O)C1Cc2ccc3c(c2C1)B(O)OC3", "note": "(stereo not drawn) [Compound 14]", "values": [{"measurement": "herbicidal activity against Abutilon theophrasti", "setting": "Abutilon theophrasti [1]; application rate 0.25 kg/ha", "value": 100, "unit": "%"}, {"measurement": "herbicidal activity against Amaranthus retroflexus", "setting": "Amaranthus retroflexus [2]; application rate 0.25 kg/ha", "value": 100, "unit": "%"}, {"measurement": "herbicidal activity against Sesbania exaltata", "setting": "Sesbania exaltata", "value": 100, "unit": "%"}]}, {"smiles": "O=C(O)C1Cc2c(F)cc3c(c2O1)B(O)OC3", "note": "(stereo not drawn) [Compound 13]", "values": [{"measurement": "herbicidal activity against Amaranthus retroflexus", "setting": "Amaranthus retroflexus [2]; application rate 0.25 kg/ha", "value": 100, "unit": "%"}, {"measurement": "herbicidal activity against Polygonum convolvulus", "setting": "Polygonum convolvulus", "value": 85, "unit": "%"}, {"measurement": "herbicidal activity against Sesbania exaltata", "setting": "Sesbania exaltata", "value": 100, "unit": "%"}]}, {"smiles": "COC(=O)C1Cc2c(Cl)cc3c(c2O1)B(O)OC3", "note": "(single isomer, unassigned) [Compound 8]", "values": [{"measurement": "herbicidal activity against Amaranthus retroflexus", "setting": "Amaranthus retroflexus [2]; application rate 2 kg/ha", "value": 100, "unit": "%"}, {"measurement": "herbicidal activity against Setaria viridis", "setting": "Setaria viridis; application rate 2 kg/ha", "value": 100, "unit": "%"}, {"measurement": "herbicidal activity against Echinocloa crus-galli", "setting": "Echinocloa crus-galli", "value": 100, "unit": "%"}, {"measurement": "herbicidal activity against Setaria faberi", "setting": "Setaria faberi", "value": 80, "unit": "%"}]}, {"smiles": "O=C(O)C1CCc2ccc3c(c2C1)B(O)OC3", "note": "(stereo not drawn) [Compound 21]", "values": [{"measurement": "herbicidal activity against Amaranthus retroflexus", "setting": "Amaranthus retroflexus [2]; application rate 1 kg/ha", "value": 100, "unit": "%"}, {"measurement": "herbicidal activity against Setaria viridis", "setting": "Setaria viridis; application rate 1 kg/ha", "value": 80, "unit": "%"}, {"measurement": "herbicidal activity against Alopecurus myosuroides", "setting": "Alopecurus myosuroides; application rate 1 kg/ha", "value": 80, "unit": "%"}]}, {"smiles": "O=C(O)C1Cc2c(ccc3c2B(O)OC3)O1", "note": "(stereo not drawn) [Compound 18]", "values": [{"measurement": "herbicidal activity against Amaranthus retroflexus", "setting": "Amaranthus retroflexus [2]; application rate 1 kg/ha", "value": 100, "unit": "%"}, {"measurement": "herbicidal activity against Setaria viridis", "setting": "Setaria viridis; application rate 1 kg/ha", "value": 90, "unit": "%"}]}, {"smiles": "COC(=O)C1Cc2c(Cl)cc3c(c2O1)B(O)OC3", "note": "(single isomer, unassigned) [Compound 7]", "values": [{"measurement": "herbicidal activity against Abutilon theophrasti", "setting": "Abutilon theophrasti [1]; application rate 2 kg/ha", "value": 100, "unit": "%"}, {"measurement": "herbicidal activity against Amaranthus retroflexus", "setting": "Amaranthus retroflexus [2]; application rate 2 kg/ha", "value": 100, "unit": "%"}, {"measurement": "herbicidal activity against Avena fatua", "setting": "Avena fatua", "value": 100, "unit": "%"}]}, {"smiles": "COC(=O)C1Cc2c(F)cc3c(c2O1)B(O)OC3", "note": "(stereo not drawn) [Compound 12]", "values": [{"measurement": "herbicidal activity against Amaranthus retroflexus", "setting": "Amaranthus retroflexus [2]; application rate 0.25 kg/ha", "value": 100, "unit": "%"}, {"measurement": "herbicidal activity against Polygonum convolvulus", "setting": "Polygonum convolvulus", "value": 95, "unit": "%"}, {"measurement": "herbicidal activity against Sesbania exaltata", "setting": "Sesbania exaltata", "value": 100, "unit": "%"}]}, {"smiles": "CCOC(=O)C1Oc2ccc3c(c2O1)B(O)OC3", "note": "(stereo not drawn) [Compound 3, ethyl 1-hydroxy-3H-[1,3]dioxolo[4,5-g][2,1]benzoxaborole-7-carboxylate]", "values": [{"measurement": "herbicidal activity against Amaranthus retroflexus", "setting": "Amaranthus retroflexus [2]; application rate 2 kg/ha", "value": 100, "unit": "%"}, {"measurement": "herbicidal activity against Setaria viridis", "setting": "Setaria viridis; application rate 2 kg/ha", "value": 100, "unit": "%"}]}, {"smiles": "COC(=O)C1Cc2c(c(Cl)cc3c2B(O)OC3C)O1", "note": "(stereo not drawn) [Compound 9, methyl-5-chloro-1-hydroxy-3-methyl-7,8-dihydro-3H-furo[2,3-g][2,1]benzoxaborole-7-carboxylate]", "values": [{"measurement": "herbicidal activity against Abutilon theophrasti", "setting": "Abutilon theophrasti [1]; application rate 2 kg/ha", "value": 100, "unit": "%"}, {"measurement": "herbicidal activity against Amaranthus retroflexus", "setting": "Amaranthus retroflexus [2]; application rate 2 kg/ha", "value": 100, "unit": "%"}, {"measurement": "herbicidal activity against Avena fatua", "setting": "Avena fatua", "value": 98, "unit": "%"}]}, {"smiles": "COC(=O)C1Cc2ccc3c(c2O1)B(O)OC3", "note": "(stereo not drawn) [Compound 5]", "values": [{"measurement": "herbicidal activity against Amaranthus retroflexus", "setting": "Amaranthus retroflexus [2]; application rate 2 kg/ha", "value": 100, "unit": "%"}, {"measurement": "herbicidal activity against Setaria viridis", "setting": "Setaria viridis; application rate 2 kg/ha", "value": 100, "unit": "%"}, {"measurement": "herbicidal activity against Echinocloa crus-galli", "setting": "Echinocloa crus-galli", "value": 100, "unit": "%"}, {"measurement": "herbicidal activity against Abutilon theophrasti", "setting": "Abutilon theophrasti [3]", "value": 80, "unit": "%"}, {"measurement": "herbicidal activity against Amaranthus retroflexus", "setting": "Amaranthus retroflexus [4]", "value": 95, "unit": "%"}, {"measurement": "herbicidal activity against Setaria faberi", "setting": "Setaria faberi", "value": 85, "unit": "%"}]}, {"smiles": "COC(=O)C1Cc2c(ccc3c2B(O)OC3)O1", "note": "(stereo not drawn) [Compound 17]", "values": [{"measurement": "herbicidal activity against Amaranthus retroflexus", "setting": "Amaranthus retroflexus [2]; application rate 2 kg/ha", "value": 100, "unit": "%"}]}, {"smiles": "COC(=O)C1Oc2ccc3c(c2O1)B(O)OC3", "note": "(stereo not drawn) [Compound 4]", "values": [{"measurement": "herbicidal activity against Abutilon theophrasti", "setting": "Abutilon theophrasti [1]; application rate 2 kg/ha", "value": 100, "unit": "%"}, {"measurement": "herbicidal activity against Amaranthus retroflexus", "setting": "Amaranthus retroflexus [2]; application rate 2 kg/ha", "value": 100, "unit": "%"}]}, {"smiles": "CCOC(=O)C1COc2c(ccc3c2B(O)OC3)O1", "note": "(stereo not drawn) [Compound 16]", "values": [{"measurement": "herbicidal activity against Amaranthus retroflexus", "setting": "Amaranthus retroflexus [2]; application rate 2 kg/ha", "value": 100, "unit": "%"}]}, {"smiles": "COC(=O)C1Cc2c(C(F)(F)F)cc3c(c2C1)B(O)OC3", "note": "(stereo not drawn) [Compound 19]", "values": [{"measurement": "herbicidal activity against Abutilon theophrasti", "setting": "Abutilon theophrasti [1]; application rate 1 kg/ha", "value": 100, "unit": "%"}, {"measurement": "herbicidal activity against Amaranthus retroflexus", "setting": "Amaranthus retroflexus [2]; application rate 1 kg/ha", "value": 100, "unit": "%"}, {"measurement": "herbicidal activity against Setaria viridis", "setting": "Setaria viridis; application rate 1 kg/ha", "value": 90, "unit": "%"}]}, {"smiles": "O=C(O)C1Cc2ccc3c(c2O1)B(O)OC3", "note": "(stereo not drawn) [Compound 6]", "values": [{"measurement": "herbicidal activity against Abutilon theophrasti", "setting": "Abutilon theophrasti [1]; application rate 2 kg/ha", "value": 100, "unit": "%"}, {"measurement": "herbicidal activity against Amaranthus retroflexus", "setting": "Amaranthus retroflexus [2]; application rate 2 kg/ha", "value": 100, "unit": "%"}, {"measurement": "herbicidal activity against Alopecurus myosuroides", "setting": "Alopecurus myosuroides; application rate 2 kg/ha", "value": 98, "unit": "%"}, {"measurement": "herbicidal activity against Amaranthus retroflexus", "setting": "Amaranthus retroflexus [4]", "value": 80, "unit": "%"}]}, {"smiles": "COC(=O)C1CCc2ccc3c(c2C1)B(O)OC3", "note": "(stereo not drawn) [Compound 20]", "values": [{"measurement": "herbicidal activity against Abutilon theophrasti", "setting": "Abutilon theophrasti [1]; application rate 1 kg/ha", "value": 100, "unit": "%"}, {"measurement": "herbicidal activity against Amaranthus retroflexus", "setting": "Amaranthus retroflexus [2]; application rate 1 kg/ha", "value": 100, "unit": "%"}, {"measurement": "herbicidal activity against Setaria viridis", "setting": "Setaria viridis; application rate 1 kg/ha", "value": 100, "unit": "%"}]}, {"smiles": "O=C(O)C1Cc2c(C(F)(F)F)cc3c(c2C1)B(O)OC3", "note": "(stereo not drawn) [Compound 22]", "values": [{"measurement": "herbicidal activity against Abutilon theophrasti", "setting": "Abutilon theophrasti [1]; application rate 1 kg/ha", "value": 100, "unit": "%"}, {"measurement": "herbicidal activity against Amaranthus retroflexus", "setting": "Amaranthus retroflexus [2]; application rate 1 kg/ha", "value": 100, "unit": "%"}, {"measurement": "herbicidal activity against Alopecurus myosuroides", "setting": "Alopecurus myosuroides; application rate 1 kg/ha", "value": 95, "unit": "%"}]}]}
